From patent US20070116829A1, “Pharmaceutical Composition with High-Potency Sweetener” (THE COCA-COLA COMPANY, priority 2005, published 2007)

Assays:
[1] = Rate of dissolution in H2O at 25° C. of rebaudioside A polymorph and amorphous forms; assay type: physicochemical
[2] = assay type: physicochemical
Experimental: A solution of rebaudioside A (>97% pure by HPLC) was prepared in double distilled water (12.5 gm in 50 mL, 25% concentration) by stirring the mixture at 40° C. for 5 minutes. An amorphous form of rebaudioside A was formed by immediately using the clear solution for spray drying with the Lab-Plant spray drier SD-04 instrument (Lab-Plant Ltd., West Yorkshire, U.K.). The solution was fed through the feed pump into the nozzle atomizer which atomized it into a spray of droplets with the help of a constant flow of nitrogen/air. […] This dry powder (11-12 g, H2O 6.74%) was discharged continuously from the drying chamber and was collected in a bottle.

C=C1C[C@@]23CC[C@H]4[C@@](C)(CCC[C@@]4(C)C(=O)O[C@@H]4O[C@H](CO)[C@@H](O)[C@H](O)[C@H]4O)[C@@H]2CC[C@]1(O[C@@H]1O[C@H](CO)[C@@H](O)[C@H](O[C@@H]2O[C@H](CO)[C@@H](O)[C@H](O)[C@H]2O)[C@H]1O[C@@H]1O[C@H](CO)[C@@H](O)[C@H](O)[C@H]1O)C3 [Form 1, rebaudioside A]
Rate of dissolution in H2O at 25° C. (in words) [1]: Very low | Rate of dissolution in H2O at 25° C. ([1]; per 60 minutes): (<0.2%/60 %/60 minutes

C=C1C[C@@]23CC[C@H]4[C@@](C)(CCC[C@@]4(C)C(=O)O[C@@H]4O[C@H](CO)[C@@H](O)[C@H](O)[C@H]4O)[C@@H]2CC[C@]1(O[C@@H]1O[C@H](CO)[C@@H](O)[C@H](O[C@@H]2O[C@H](CO)[C@@H](O)[C@H](O)[C@H]2O)[C@H]1O[C@@H]1O[C@H](CO)[C@@H](O)[C@H](O)[C@H]1O)C3 [Form 2, rebaudioside A]
Rate of dissolution in H2O at 25° C. (in words) [1]: Intermediate | Rate of dissolution in H2O at 25° C. ([1]; per 5 minutes): (<30%/5 %/5 minutes

C=C1C[C@@]23CC[C@H]4[C@@](C)(CCC[C@@]4(C)C(=O)O[C@@H]4O[C@H](CO)[C@@H](O)[C@H](O)[C@H]4O)[C@@H]2CC[C@]1(O[C@@H]1O[C@H](CO)[C@@H](O)[C@H](O[C@@H]2O[C@H](CO)[C@@H](O)[C@H](O)[C@H]2O)[C@H]1O[C@@H]1O[C@H](CO)[C@@H](O)[C@H](O)[C@H]1O)C3 [Form 3, rebaudioside A]
Rate of dissolution in H2O at 25° C. (in words) [1]: High | Rate of dissolution in H2O at 25° C. ([1]; per 5 minutes): (>30%/5 %/5 minutes

C=C1C[C@@]23CC[C@H]4[C@@](C)(CCC[C@@]4(C)C(=O)O[C@@H]4O[C@H](CO)[C@@H](O)[C@H](O)[C@H]4O)[C@@H]2CC[C@]1(O[C@@H]1O[C@H](CO)[C@@H](O)[C@H](O[C@@H]2O[C@H](CO)[C@@H](O)[C@H](O)[C@H]2O)[C@H]1O[C@@H]1O[C@H](CO)[C@@H](O)[C@H](O)[C@H]1O)C3 [Form 4, rebaudioside A]
solubility in water at room temperature [2]: > 35.0% | Rate of dissolution in H2O at 25° C. (in words) [1]: High | Rate of dissolution in H2O at 25° C. ([1]; per 5 minutes): (>35.0%/5 %/5 minutes
